Results on one compound are retold here after PMC5618429, “Kempopeptin C, a Novel Marine-Derived Serine Protease Inhibitor Targeting Invasive Breast Cancer” (Marine Drugs, 2017).

Structures are written as SMILES.

Usually IC50 stands for the concentration that gives 50% inhibition.

Type in all cases: biochemical
Assay [1] has as its target T1, plasmin from human plasma (Homo sapiens, UniProt P00747).
T1 construct: purchased Sigma P1867; host or cells: human plasma
The experiment in a line: Plasmin inhibition assay. The settings on record: mean ± SD, n = 3; 30-min preincubation; read-out: IC50 against plasmin. The method, then:
The plasmin inhibition assay was carried out by incubating 5 µL of […] plasmin from human plasma (P1867, Sigma, St. Louis, MO, USA) with 1 µL of different concentrations of inhibitors (2 and 3; half log dilutions prepared in DMSO) or the solvent control in the presence of 89 µL assay buffer (0.05 M Tris-HCl, pH 8.9). After a 30-min incubation time, 5 µL of 1.7 mM substrate solution (N-p-Tosyl-D-Gly-Pro-Lys-4-nitroanilide acetate salt; prepared in assay buffer) were added to each well. The reaction was monitored by measuring the absorbance at 405 nm every 30 s for 30 min using the SpectraMax M5 plate reader (Molecular Devices).

For assay [2], the target named is T2, recombinant human matriptase (Homo sapiens, UniProt Q9Y5Y6).
T2 construct: purchased R&D Systems 3946-SE-010
T2 sequence (Q9Y5Y6 615-855 limits assumed): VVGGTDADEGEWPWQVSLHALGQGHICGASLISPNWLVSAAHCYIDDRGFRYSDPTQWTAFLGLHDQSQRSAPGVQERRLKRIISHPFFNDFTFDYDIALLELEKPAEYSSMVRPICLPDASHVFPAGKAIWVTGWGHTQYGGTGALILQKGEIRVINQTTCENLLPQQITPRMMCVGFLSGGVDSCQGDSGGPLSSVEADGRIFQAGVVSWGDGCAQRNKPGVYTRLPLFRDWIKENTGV
In words: Matriptase inhibition assay. The settings on record: mean ± SD, n = 3; 15-min preincubation; read-out: IC50 against matriptase. The method, then: In matriptase inhibition assay, 50 µL of recombinant human matriptase (R&D Systems, Minneapolis, MN, USA; 3946-SE-010) ([…] prepared in assay buffer: 50 mM Tris, 50 mM NaCl, 0.01% Tween 20; pH 9.0) and 1 µL of different concentrations of inhibitors (2 and 3; half log dilutions prepared in DMSO) or the solvent control were pre-incubated at room temperature for 15 min. Following the incubation period, 50 µL of the 50 µM substrate solution (Boc-Gln-Ala-Arg-AMC) (R&D Systems, Minneapolis, MN, USA; ES014) were added to each well, and the enzyme activity was monitored by measuring the increase in fluorescence signal from the fluorescently-labeled substrate every 30 s for 30 min (Ex 380 nm, Em 460 nm) using the SpectraMax M5 plate reader (Molecular Devices).

Assay [3] addresses T2, recombinant human matriptase. In words: In vitro cleavage of CDCP1 by matriptase (SDS-PAGE, silver stain). The settings on record: enzyme to substrate ratio 1:5, pH 9.0, 37 °C, 30 min and 2 h, 10‒0.01 µM inhibitor, qualitative. An excerpt: Due to the significance of these proteases in cancer progression and metastasis, as well as their functional redundancy with respect to targeting overlapping substrates, we focused our studies on examining the effect of kempopeptin C (3) on the downstream cellular substrates of matriptase. Due to the limited amount of 3, our study aimed to provide a qualitative preliminary characterization of CDCP1 and Dsg-2 cleavage inhibition by kempopeptin C (3). […] CDCP1 is considered a potential prognostic marker with expression levels found to correlate with the recurrence and survival rate of cancer patients. […] The exact mechanism regulating the generation of the LMW fragment is poorly understood; however, there is evidence for the involvement of serine protease proteolytic activity. Several studies provided evidence for serine protease-mediated (trypsin, plasmin and matriptase) cleavage of CDCP1 [15, 38]. Therefore, we examined the ability of recombinant human matriptase to cleave CDCP1 in vitro and assessed the effect of kempopeptin C (3) on inhibiting/reducing this cleavage. Recombinant human matriptase was incubated with CDCP1 (final molar ratio 1:5) at different time points (30 min and 2 h) at 37 °C in the presence of varying concentrations of kempopeptin C (3) or solvent control (Figure 4A,B). […] LMW fragments were more readily detected at longer incubation times (2 h). […]

T1 sequence (P00747 581-810 limits assumed): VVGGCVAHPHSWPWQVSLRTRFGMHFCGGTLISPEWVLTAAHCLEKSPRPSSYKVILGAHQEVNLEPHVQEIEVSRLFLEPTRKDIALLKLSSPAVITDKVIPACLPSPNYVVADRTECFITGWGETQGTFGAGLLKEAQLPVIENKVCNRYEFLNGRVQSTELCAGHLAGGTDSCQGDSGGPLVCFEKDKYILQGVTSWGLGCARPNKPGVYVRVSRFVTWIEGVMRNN
T1 sequence (P00747 98-580 partner limits assumed): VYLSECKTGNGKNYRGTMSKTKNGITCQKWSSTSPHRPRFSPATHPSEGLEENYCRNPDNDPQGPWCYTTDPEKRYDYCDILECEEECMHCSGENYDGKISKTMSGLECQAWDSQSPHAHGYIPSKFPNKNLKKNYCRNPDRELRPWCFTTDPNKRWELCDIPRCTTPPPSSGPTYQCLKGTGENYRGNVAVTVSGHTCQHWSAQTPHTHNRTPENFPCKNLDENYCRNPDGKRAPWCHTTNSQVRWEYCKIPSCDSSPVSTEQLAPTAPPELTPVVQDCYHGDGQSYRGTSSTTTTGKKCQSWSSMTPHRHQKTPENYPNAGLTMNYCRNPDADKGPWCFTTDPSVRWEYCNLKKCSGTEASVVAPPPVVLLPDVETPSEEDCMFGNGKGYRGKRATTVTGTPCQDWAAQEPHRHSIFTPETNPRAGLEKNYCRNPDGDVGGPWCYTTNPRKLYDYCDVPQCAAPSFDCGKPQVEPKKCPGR

Consider `CCCC(=O)NC(C(=O)NC1C(=O)NC(CCCCN)C(=O)NC2CCC(O)N(C2=O)C(C(C)CC)C(=O)N(C)C(Cc2ccc(OC)c(Cl)c2)C(=O)NC(C(C)C)C(=O)OC1C)C(C)C` (stereo not shown) [Kempopeptin C, kempopeptin C], for which the half-inhibitory concentration (IC50) in assay [1] stood at 360 ± 90 nM; in assay [2], 280 ± 30 nM. The “Inhibition of in vitro cleavage of CDCP1 by matriptase” value is listed as “inhibit the cleavage” in assay [3] and “able to only minimize the cleavage at 10 µM” in assay [3] (listed as Kempopeptin C (3)).
